Measured values: patent US20160009755A1, “CYRRHETINIC ALKYL ESTERS AND PROTECTED DERIVATIVES THEREOF” (priority 2013, published 2016)

System: secreted IL-8 in normal human epidermal keratinocytes (NHEK)
Assay: IL-8 secretion in PMA-stimulated NHEK (anti-inflammatory test)
Type: cell-based
Procedure: In an exemplary test, NHEK were cultured in a medium for 24 hours. […] Then the culture medium was removed and replaced with another culture medium containing or not (control) the […] methyl ester or the reference compound and containing an inflammatory inducer (PMA) and the cells were incubated for 24 hours. A control without inducer was performed in parallel. After incubation, the culture supernatants were collected in order to measure the quantity of secreted IL-8.

## COC(=O)[C@@]1(C)CC[C@]2(C)CC[C@]3(C)C(=CC(=O)[C@@H]4[C@@]5(C)CC[C@H](O)C(C)(C)[C@@H]5CC[C@]43C)[C@@H]2C1 [Cyrrhetinic methyl ester, cyrrhetinic methyl ester]
15.625 μM
  % Stimulated Control: 42%
  Avg. IL-8: 1349 pg/mL
31.25 μM
  % Stimulated Control: 28%
  Avg. IL-8: 907 pg/mL
62.5 μM
  % Stimulated Control: 28%
  Avg. IL-8: 902 pg/mL
IL-8 secretion, 15.625 μM
  % Inhibition: 59%
IL-8 secretion, 31.25 μM
  % Inhibition: 73%
IL-8 secretion, 62.5 μM
  % Inhibition: 73%
Maximum over tested concentrations (up to)
  inhibition of IL-8 secretion: ≤ 73%

## CC1(C)[C@@H](O)CC[C@]2(C)[C@H]3C(=O)C=C4[C@@H]5C[C@@](C)(C(=O)O)CC[C@]5(C)CC[C@@]4(C)[C@]3(C)CC[C@@H]12 [Glycyrrhetinic acid, glycyrrhetinic acid]
0.5 μM
  % Stimulated Control: 95%
  Avg. IL-8: 3037 pg/mL
1 μM
  % Stimulated Control: 108%
  Avg. IL-8: 3470 pg/mL
2 μM
  % Stimulated Control: 139%
  Avg. IL-8: 4450 pg/mL
Homo sapiens, IL-8 secretion, 0.5 μM
  inhibition at 0.5 µM: 5%
Homo sapiens, IL-8 secretion, 1 μM
  inhibition at 1 µM: -9%
Homo sapiens, IL-8 secretion, 2 μM
  inhibition at 2 µM: -40%

## CN[C@@H]1C[C@H]2O[C@@](C)([C@@H]1OC)n1c3ccccc3c3c4c(c5c6ccccc6n2c5c31)C(=O)NC4 [Staurosporine, staurosporine]
10^−9M
  % Stimulated Control: 18%
  Avg. IL-8: 588 pg/mL
